Experimental findings from patent publication EP3057951B1, “METHYLENE LINKED QUINOLINYL MODULATORS OF ROR-GAMMA-T” (Janssen Pharmaceutica NV, priority 2013, dated 2015) are described below.

Several values for one entry are separate records, joined by “and”; a condition that tells them apart may be missing. Identical values can stand only once.

For assay [1], the target named is T1, wild type human RORγt ligand binding domain (RORyt LBD) (Homo sapiens, UniProt P51449).
T1 construct: His-tag (N); TurboTEV protease cleavage site (ENLYFQG) (N); made in house; host or cells: E. coli (pHIS1, modified pET vector)
T1 sequence (P51449 258-518): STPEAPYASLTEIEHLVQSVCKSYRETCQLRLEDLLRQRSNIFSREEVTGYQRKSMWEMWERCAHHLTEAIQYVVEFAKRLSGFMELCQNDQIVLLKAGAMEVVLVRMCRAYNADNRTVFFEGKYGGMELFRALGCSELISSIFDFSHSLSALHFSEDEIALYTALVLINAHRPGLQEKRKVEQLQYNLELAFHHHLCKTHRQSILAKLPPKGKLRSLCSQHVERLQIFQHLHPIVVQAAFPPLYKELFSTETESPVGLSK
As to the kind of experiment: RORγt ThermoFluor assay (thermal shift, binding affinity KD).

Assay [2] concerns the target T2, wild type human RORγt LBD (Homo sapiens, UniProt P51449).
T2 construct: expressed in transfected cells; host or cells: HEK293T
T2 sequence (P51449 258-518): T1 sequence (P51449 258-518)
In words: RORγt (LBD) Reporter Assay (GAL4-luciferase, HEK293T cells). In kind it is cell-based. The settings on record: for RORγt (LBD) Reporter Assay, % inhibition @ 6 µM: 6 µM compound concentration; for IC50: HEK293T cells, value after the comma with ∼, > or < could not be included in the average; for inhibition at 6 µM: HEK-293T, read-out: RORγt (LBD) Reporter Assay, % inhibition @ 6 µM, 6 µM compound concentration. Background: Reporter assays use an easily measured gene product as a stand-in for the process of interest.

Usually Kd stands for a measure of binding affinity in units of concentration. What is called IC50 is the midpoint of a concentration-inhibition curve. A low value points to inhibition by little substance. For `COc1nc2ccc(C(O)(c3cnnn3C)C3CCOCC3)cc2c(Cl)c1Cc1ccc(C(F)(F)F)cc1` (single isomer, unassigned) [Example 85c, (4-Chloro-2-methoxy-3-(4-(trifluoromethyl)benzyl)quinolin-6-yl)(1-methyl-1H-1,2,3-triazol-5-yl)(tetrahydro-2H-pyran-4-yl)methanol], in assay [1], the equilibrium dissociation constant (Kd) was determined as 2.8 nM. The “RORγt (LBD) Reporter Assay, % inhibition @ 6 µM” value (“RORγt … % inhibition @ 6 µM” for short) in assay [2] (6 µM) stood at 100%. Half-maximal inhibition in assay [2] (IC50) required 17 nM.
On to `COc1nc2ccc(C(O)(c3ccc(C)nc3C)C3CN(C(C)=O)C3)cc2c(Cl)c1Cc1ccc(C(F)(F)F)cc1` (single isomer, unassigned) [Example 87b, 1-(3-((4-Chloro-2-methoxy-3-(4-(trifluoromethyl)benzyl)quinolin-6-yl)(2,6-dimethylpyridin-3-yl)(hydroxy)methyl)azetidin-1-yl)ethanone], for which, in assay [1], the Kd stood at 0.73 nM. In assay [2], it took 13 nM to reach half-maximal inhibition (IC50) and the inhibition at 6 µM turned out to be 100%.
As to `COc1nc2ccc(C(O)(c3ccc(C)nc3C)C3CN(C(C)=O)C3)cc2c(Cl)c1Cc1ccc(C(F)(F)F)cc1` (single isomer, unassigned) [Example 87c, 1-(3-((4-Chloro-2-methoxy-3-(4-(trifluoromethyl)benzyl)quinolin-6-yl)(2,6-dimethylpyridin-3-yl)(hydroxy)methyl)azetidin-1-yl)ethanone], the Kd in assay [1] is 3 nM. The “RORγt … % inhibition @ 6 µM” value in assay [2] (6 µM) was 97%. The 50% inhibitory concentration (IC50) in assay [2] is 15 nM.
For `COc1nc2ccc(C(O)(c3ccc(C)nc3C)c3cncn3C)cc2c(Cl)c1Cc1ccc(C(F)(F)F)cc1` (single isomer, unassigned) [Example 88b, (4-Chloro-2-methoxy-3-(4-(trifluoromethyl)benzyl)quinolin-6-yl)(2,6-dimethylpyridin-3-yl)(1-methyl-1H-imidazol-5-yl)methanol], the Kd in assay [1] came to 480 nM. In assay [2], 740 nM corresponded to half-maximal inhibition (IC50) and the inhibition at 6 µM came to 95%.
With `COc1nc2ccc(C(O)(c3ccc(C)nc3C)c3cncn3C)cc2c(Cl)c1Cc1ccc(C(F)(F)F)cc1` (single isomer, unassigned) [Example 88c, (4-Chloro-2-methoxy-3-(4-(trifluoromethyl)benzyl)quinolin-6-yl)(2,6-dimethylpyridin-3-yl)(1-methyl-1H-imidazol-5-yl)methanol], the Kd in assay [1] is 0.08 nM. The “RORγt … % inhibition @ 6 µM” value in assay [2] (6 µM) is listed as 98%. For the same compound, the half-inhibitory concentration (IC50) in assay [2] turned out to be 10 nM.
`COc1nc2ccc(C(O)(c3cncn3C)c3cnnn3C)cc2c(Cl)c1Cc1ccc(C(F)(F)F)cc1` (single isomer, unassigned) [Example 89b, (4-Chloro-2-methoxy-3-(4-(trifluoromethyl)benzyl)quinolin-6-yl)(1-methyl-1H-1,2,3-triazol-5-yl)(1-methyl-1H-imidazol-5-yl)methanol]: the equilibrium dissociation constant (Kd) in assay [1] worked out at 1.2 nM. In addition, in assay [2], the IC50 was less than 2 nM and the inhibition at 6 µM worked out at 97%.
Consider `COc1nc2ccc(C(O)(c3cncn3C)c3cnnn3C)cc2c(Cl)c1Cc1ccc(C(F)(F)F)cc1` (single isomer, unassigned) [Example 89c, (4-Chloro-2-methoxy-3-(4-(trifluoromethyl)benzyl)quinolin-6-yl)(1-methyl-1H-1,2,3-triazol-5-yl)(1-methyl-1H-imidazol-5-yl)methanol], for which, in assay [1], the Kd was 0.26 nM. In addition, in assay [2], the “RORγt … % inhibition @ 6 µM” value is 97% and the half-inhibitory concentration (IC50) was less than 2 nM.
For the compound `COc1nc2ccc(C(O)(c3sc(C)nc3C)c3cnnn3C)cc2cc1Cc1ccc(C(F)(F)F)cc1` (single isomer, unassigned) [Example 92b, (2,4-Dimethylthiazol-5-yl)(2-methoxy-3-(4-(trifluoromethyl)benzyl)quinolin-6-yl)(1-methyl-1H-1,2,3-triazol-5-yl)methanol], the equilibrium dissociation constant (Kd) in assay [1] turned out to be 2000 nM. In addition, in assay [2], the IC50 was found to be 2800 nM and the inhibition at 6 µM was determined as 79%.
`COc1nc2ccc(C(O)(c3sc(C)nc3C)c3cnnn3C)cc2cc1Cc1ccc(C(F)(F)F)cc1` (single isomer, unassigned) [Example 92c, (2,4-Dimethylthiazol-5-yl)(2-methoxy-3-(4-(trifluoromethyl)benzyl)quinolin-6-yl)(1-methyl-1H-1,2,3-triazol-5-yl)methanol]: in assay [1], the Kd came out at 19 nM. The “RORγt … % inhibition @ 6 µM” value in assay [2] (6 µM) came to 96%. Further, 30 nM corresponded to half-maximal inhibition in assay [2] (IC50).
Turning to `COc1c(Cc2ccccc2)c(C(F)(F)F)nc2ccc(C(O)(c3ccccn3)c3cncn3C)cc12` (single isomer, unassigned) [Example 98b, (3-Benzyl-4-methoxy-2-(trifluoromethyl)quinolin-6-yl)(1-methyl-1H-imidazol-5-yl)(pyridin-2-yl)methanol], in assay [1], the Kd worked out at 2200 nM. Besides, the “RORγt … % inhibition @ 6 µM” value in assay [2] (6 µM) turned out to be 74%. The half-maximal inhibitory concentration (IC50) in assay [2] is roughly 5000 nM.
As for `COc1c(Cc2ccccc2)c(C(F)(F)F)nc2ccc(C(O)(c3ccccn3)c3cncn3C)cc12` (single isomer, unassigned) [Example 98c, (3-Benzyl-4-methoxy-2-(trifluoromethyl)quinolin-6-yl)(1-methyl-1H-imidazol-5-yl)(pyridin-2-yl)methanol], the dissociation constant (Kd) in assay [1] came out at 380 nM. Also, in assay [2] (6 µM), the “RORγt … % inhibition @ 6 µM” value was found to be 96%. This compound also returned an IC50 in assay [2] of 420 nM.
On to `Cn1cncc1C(O)(c1ccc2nc(C(F)(F)F)c(Cc3ccccc3)c(C#N)c2c1)c1ccccn1` (single isomer, unassigned) [Example 99b, 3-Benzyl-6-(hydroxy(1-methyl-1H-imidazol-5-yl)(pyridin-2-yl)methyl)-2-(trifluoromethyl)quinoline-4-carbonitrile], for which the Kd in assay [1] worked out at 810 nM. Moreover, in assay [2], the IC50 was roughly 2000 nM and the inhibition at 6 µM came out at 86%.
As for `Cn1cncc1C(O)(c1ccc2nc(C(F)(F)F)c(Cc3ccccc3)c(C#N)c2c1)c1ccccn1` (single isomer, unassigned) [Example 99c, 3-Benzyl-6-(hydroxy(1-methyl-1H-imidazol-5-yl)(pyridin-2-yl)methyl)-2-(trifluoromethyl)quinoline-4-carbonitrile], in assay [1], the Kd amounted to 12 nM. The “RORγt … % inhibition @ 6 µM” value in assay [2] (6 µM) turned out to be 97%. In assay [2], this compound displayed an IC50 of 20 nM.
Turning to `COc1c(Cc2ccccc2)c(C(F)(F)F)nc2ccc(C(O)(c3ccc(C(F)(F)F)nc3)c3cncn3C)cc12` (single isomer, unassigned) [Example 106b, (3-Benzyl-4-methoxy-2-(trifluoromethyl)quinolin-6-yl)(1-methyl-1H-imidazol-5-yl)(6-(trifluoromethyl)pyridin-3-yl)methanol], the Kd in assay [1] worked out at 110 nM. Also, in assay [2] (6 µM), the “RORγt … % inhibition @ 6 µM” value was 94%. The compound also had an IC50 in assay [2] of 670 nM.
Turning to `COc1c(Cc2ccccc2)c(C(F)(F)F)nc2ccc(C(O)(c3ccc(C(F)(F)F)nc3)c3cncn3C)cc12` (single isomer, unassigned) [Example 106c, (3-Benzyl-4-methoxy-2-(trifluoromethyl)quinolin-6-yl)(1-methyl-1H-imidazol-5-yl)(6-(trifluoromethyl)pyridin-3-yl)methanol], the Kd in assay [1] worked out at 18 nM. Also, the “RORγt … % inhibition @ 6 µM” value in assay [2] (6 µM) is 65%. Also, the IC50 in assay [2] is roughly 5000 nM.
Taken in the same sequence, the figures for `Cn1cncc1C(O)(c1ccc(C(F)(F)F)nc1)c1ccc2nc(C(F)(F)F)c(Cc3ccccc3)c(C#N)c2c1` (single isomer, unassigned) [Example 108b, 3-Benzyl-6-(hydroxy(1-methyl-1H-imidazol-5-yl)(6-(trifluoromethyl)pyridin-3-yl)methyl)-2-(trifluoromethyl)quinoline-4-carbonitrile] were 1.2 nM, 55% and 1100 nM.
Take `Cn1cncc1C(O)(c1ccc(C(F)(F)F)nc1)c1ccc2nc(C(F)(F)F)c(Cc3ccccc3)c(C#N)c2c1` (single isomer, unassigned) [Example 108c, 3-Benzyl-6-(hydroxy(1-methyl-1H-imidazol-5-yl)(6-(trifluoromethyl)pyridin-3-yl)methyl)-2-(trifluoromethyl)quinoline-4-carbonitrile]: the Kd in assay [1] was found to be 46 nM. Further, in assay [2] (6 µM), the “RORγt … % inhibition @ 6 µM” value was 83%. Moreover, the concentration for half-maximal inhibition (IC50) in assay [2] is 960 nM and ~1000 nM.
Turning to `Cn1cc(-c2nc3ccc(C(O)(c4ccc(C(F)(F)F)nc4)c4cncn4C)cc3c(Cl)c2Cc2ccccc2)cn1` (single isomer, unassigned) [Example 111b, (3-Benzyl-4-chloro-2-(1-methyl-1H-pyrazol-4-yl)quinolin-6-yl)(1-methyl-1H-imidazol-5-yl)(6-(trifluoromethyl)pyridin-3-yl)methanol], in assay [1], the Kd worked out at 1400 nM. In assay [2], the IC50 is roughly 900 nM and the inhibition at 6 µM amounted to 99%.
As to `Cn1cc(-c2nc3ccc(C(O)(c4ccc(C(F)(F)F)nc4)c4cncn4C)cc3c(Cl)c2Cc2ccccc2)cn1` (single isomer, unassigned) [Example 111c, (3-Benzyl-4-chloro-2-(1-methyl-1H-pyrazol-4-yl)quinolin-6-yl)(1-methyl-1H-imidazol-5-yl)(6-(trifluoromethyl)pyridin-3-yl)methanol], the dissociation constant Kd in assay [1] came to 22000 nM. The “RORγt … % inhibition @ 6 µM” value in assay [2] (6 µM) worked out at 92%. The half-inhibitory concentration (IC50) in assay [2] was roughly 5000 nM.
